According to patent US4200575A, “7[(2-Thiazolyl)-2-(oxoimino)acetamido]cephalosporin derivatives” (Takeda Chemical Industries, Ltd., priority 1977, dated 1980):

How the values were obtained:
Assay in all cases: Minimal inhibitory concentration (M.I.C.), agar dilution method
Details in all cases: TSA, inoculum 10^7 /ml
[1] = test system: S. aureus 1840; assay type: cell-based, Staphylococcus aureus
Excerpt: (§1) (a) Determination of minimal inhibitory concentrations (Tables 1 to 8):
(§2) Procedure: agar dilution method

[2] = test system: S. aureus 209P; assay type: cell-based, Staphylococcus aureus
Excerpt: as §1, §2

[3] = test system: P. morganii IFO 3168; assay type: cell-based, Proteus morganii
Excerpt: as §1, §2

[4] = test system: E. coli 0-111; assay type: cell-based, Escherichia coli
Method in brief: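 MIC against E. coli O-111 was determined by agar dilution.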

[5] = test system: P. mirabilis GN 4359; assay type: cell-based, Proteus mirabilis
Excerpt: as §1, §2

[6] = test system: K. pneumoniae DT; assay type: cell-based, Klebsiella pneumoniae
Excerpt: as §1, §2

[7] = test system: K. pneumoniae GN 3835; assay type: cell-based, Klebsiella pneumoniae
Excerpt: as §1, §2

[8] = test system: S. marcescens IFO 12648; assay type: cell-based, Serratia marcescens
Excerpt: as §1, §2

[9] = test system: S. marcescens TN 24; assay type: cell-based, Serratia marcescens
Excerpt: as §1, §2

[10] = test system: C. freundii GN 99; assay type: cell-based, Citrobacter freundii
Excerpt: as §1, §2

[11] = test system: C. freundii GN 1706; assay type: cell-based, Citrobacter freundii
Excerpt: as §1, §2

[12] = test system: P. vulgaris IFO 3988; assay type: cell-based, Proteus vulgaris
Excerpt: as §1, §2

[13] = test system: P. vulgaris GN 4413; assay type: cell-based, Proteus vulgaris
Excerpt: as §1, §2

[14] = test system: E. cloacae TN 1282; assay type: cell-based, Enterobacter cloacae
Excerpt: as §1, §2

[15] = test system: E. coli T-7; assay type: cell-based, Escherichia coli
Excerpt: as §1, §2

[16] = test system: E. coli NIHJ JC-2; assay type: cell-based, Escherichia coli
Excerpt: as §1, §2

[17] = test system: P. rettgeri GN4733; assay type: cell-based, Proteus rettgeri
Excerpt: as §1, §2

[18] = test system: P. rettgeri TN 338; assay type: cell-based, Proteus rettgeri
Excerpt: as §1, §2

| Structure (SMILES) | minimal inhibitory concentration (M.I.C.) [1] | minimal inhibitory concentration (M.I.C.) [2] | minimal inhibitory concentration (M.I.C.) [3] | minimal inhibitory concentration (M.I.C.) [4] | minimal inhibitory concentration (M.I.C.) [5] | minimal inhibitory concentration (M.I.C.) [6] | minimal inhibitory concentration (M.I.C.) [7] | minimal inhibitory concentration (M.I.C.) [8] | minimal inhibitory concentration (M.I.C.) [9] | minimal inhibitory concentration (M.I.C.) [10] | minimal inhibitory concentration (M.I.C.) [11] | minimal inhibitory concentration (M.I.C.) [12] | minimal inhibitory concentration (M.I.C.) [13] | minimal inhibitory concentration (M.I.C.) [14] | minimal inhibitory concentration (M.I.C.) [15] | minimal inhibitory concentration (M.I.C.) [16] | minimal inhibitory concentration (M.I.C.) [17] | minimal inhibitory concentration (M.I.C.) [18] |
| --- | --- | --- | --- | --- | --- | --- | --- | --- | --- | --- | --- | --- | --- | --- | --- | --- | --- | --- |
| CCCNC(=O)O/N=C(\C(=O)NC1C(=O)N2C(C(=O)O)=C(C)CSC12)c1csc(=N)[nH]1 (stereo not drawn) [Example II - 15] | 12.5 | 12.5 | 50 | 3.13 | 3.13 | 3.13 | 6.25 | > 100 | > 100 | 12.5 | 12.5 | 12.5 | 50 | > 100 | 25 | 6.25 | 0.39 | 0.1 |
| CCNC(=O)O/N=C(\C(=O)NC1C(=O)N2C(C(=O)O)=C(CSc3nnc(C)s3)CSC12)c1csc(=N)[nH]1 (stereo not drawn) [Example II - 10] | 1.56 | 0.78 | 0.39 | 0.2 | 0.78 | 0.2 | 0.78 | 3.13 | 1.56 | 0.39 | 0.78 | 0.39 | 12.5 | 3.13 | 3.13 | 0.78 | 0.78 | ≤ 0.05 |
| CNC(=O)O/N=C(\C(=O)NC1C(=O)N2C(C(=O)O)=C(CSc3nnc(CO)n3C)CSC12)c1csc(=N)[nH]1 (stereo not drawn) [Example IV - 5] | 6.25 | 6.25 | 0.39 | ≤ 0.2 | 0.39 | ≤ 0.2 | 0.39 | 3.13 | 3.13 | 0.39 | 0.78 | 0.39 | 25 | 3.13 | 1.56 | ≤ 0.2 | 0.78 | ≤ 0.2 |
| CC1=C(C(=O)O)N2C(=O)C(NC(=O)/C(=N\OC(=O)NC(C)C)c3csc(=N)[nH]3)C2SC1 (stereo not drawn) [Example II - 19] | 25 | 25 | 50 | 3.13 | 3.13 | 3.13 | 6.25 | 100 | > 100 | 12.5 | 12.5 | 12.5 | 50 | 100 | 25 | 6.25 | 0.39 | 0.1 |
| CCNC(=O)O/N=C(\C(=O)NC1C(=O)N2C(C(=O)O)=C(COC(C)=O)CSC12)c1csc(=N)[nH]1 (stereo not drawn) [Example II - 7] | 3.13 | 1.56 | 1.56 | 0.024 | 0.1 | 0.05 | 0.39 | 6.25 | 6.25 | 0.39 | 0.78 | 0.2 | 6.25 | 12.5 | 1.56 | 0.39 | 0.1 | ≤ 0.012 |
| CCCCNC(=O)O/N=C(\C(=O)NC1C(=O)N2C(C(=O)O)=C(CSc3nnnn3C)CSC12)c1csc(=N)[nH]1 (stereo not drawn) [Example II - 22] | 3.13 | 0.78 | 0.78 | 0.024 | 0.39 | 0.1 | 0.78 | 6.25 | 5.13 | 0.2 | 0.78 | 0.1 | 12.5 | 12.5 | 6.25 | 0.39 | 0.1 | ≤ 0.012 |
| CNC(=O)O/N=C(\C(=O)NC1C(=O)N2C(C(=O)O)=C(CSc3nnnn3CCN(C)C)CSC12)c1csc(=N)[nH]1 (stereo not drawn) [Example IV - 3, 7-[2-(2-imino-4-thiazolin-4-yl)-2-methylcarbamoyloximinoacetamido]-3-[1-(2-dimethylammonium)ethyl-1H-tetrazol-5-yl]thiomethyl-3-cephem-4-carboxylate (syn-isomer)] | 3.13 | 1.56 | 0.39 | ≤ 0.2 | 0.39 | ≤ 0.2 | 0.39 | 6.25 | 6.25 | ≤ 0.2 | 0.78 | 0.39 | 100 | 1.56 | 3.13 | 0.39 | 0.39 | ≤ 0.2 |
